Columns and labels:
Test in all cases: RBC kinase panel
Type in all cases: biochemical
Settings in all cases: ATP 10 μM, Data1, Data2
[1] = target: T1, NEK2 (Homo sapiens, UniProt P51955)
T1 construct: purchased Reaction Biology Corporation
Outline: (§1)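 Kinases from a 369-member human panel were incubated with 1 μM compound under 10 μM ATP, and every assay was done in duplicate.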

[2] = target: T2, CDK16/cyclin Y (PCTAIRE) (Homo sapiens, UniProt Q00536)
T2 construct: purchased Reaction Biology Corporation
T2 sequence (Q00536 whole entry): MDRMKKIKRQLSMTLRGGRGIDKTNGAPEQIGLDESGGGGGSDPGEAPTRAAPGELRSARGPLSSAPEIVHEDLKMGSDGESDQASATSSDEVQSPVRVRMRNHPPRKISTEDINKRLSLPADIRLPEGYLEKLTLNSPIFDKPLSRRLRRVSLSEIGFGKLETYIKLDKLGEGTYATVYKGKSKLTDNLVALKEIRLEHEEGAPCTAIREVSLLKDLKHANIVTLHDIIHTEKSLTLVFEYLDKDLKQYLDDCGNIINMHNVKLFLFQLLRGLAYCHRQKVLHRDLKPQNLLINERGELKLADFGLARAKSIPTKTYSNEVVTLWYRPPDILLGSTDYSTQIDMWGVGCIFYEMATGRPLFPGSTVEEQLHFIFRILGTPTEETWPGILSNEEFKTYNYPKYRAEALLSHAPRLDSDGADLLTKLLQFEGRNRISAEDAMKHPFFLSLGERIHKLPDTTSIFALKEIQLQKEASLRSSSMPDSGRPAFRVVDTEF
T2 sequence (Q8ND76 whole entry partner): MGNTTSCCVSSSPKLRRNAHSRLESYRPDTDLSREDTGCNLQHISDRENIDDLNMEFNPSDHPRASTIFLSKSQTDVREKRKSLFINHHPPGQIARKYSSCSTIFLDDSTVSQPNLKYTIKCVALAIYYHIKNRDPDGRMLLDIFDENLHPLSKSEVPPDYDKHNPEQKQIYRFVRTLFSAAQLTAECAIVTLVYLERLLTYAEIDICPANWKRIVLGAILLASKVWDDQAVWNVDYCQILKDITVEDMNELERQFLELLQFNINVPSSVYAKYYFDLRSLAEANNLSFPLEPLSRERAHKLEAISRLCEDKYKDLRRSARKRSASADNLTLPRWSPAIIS
Outline: as §1

[3] = target: T3, MARK2/PAR-1Ba (Homo sapiens, UniProt Q7KZI7)
T3 construct: purchased Reaction Biology Corporation
T3 sequence (Q7KZI7 whole entry): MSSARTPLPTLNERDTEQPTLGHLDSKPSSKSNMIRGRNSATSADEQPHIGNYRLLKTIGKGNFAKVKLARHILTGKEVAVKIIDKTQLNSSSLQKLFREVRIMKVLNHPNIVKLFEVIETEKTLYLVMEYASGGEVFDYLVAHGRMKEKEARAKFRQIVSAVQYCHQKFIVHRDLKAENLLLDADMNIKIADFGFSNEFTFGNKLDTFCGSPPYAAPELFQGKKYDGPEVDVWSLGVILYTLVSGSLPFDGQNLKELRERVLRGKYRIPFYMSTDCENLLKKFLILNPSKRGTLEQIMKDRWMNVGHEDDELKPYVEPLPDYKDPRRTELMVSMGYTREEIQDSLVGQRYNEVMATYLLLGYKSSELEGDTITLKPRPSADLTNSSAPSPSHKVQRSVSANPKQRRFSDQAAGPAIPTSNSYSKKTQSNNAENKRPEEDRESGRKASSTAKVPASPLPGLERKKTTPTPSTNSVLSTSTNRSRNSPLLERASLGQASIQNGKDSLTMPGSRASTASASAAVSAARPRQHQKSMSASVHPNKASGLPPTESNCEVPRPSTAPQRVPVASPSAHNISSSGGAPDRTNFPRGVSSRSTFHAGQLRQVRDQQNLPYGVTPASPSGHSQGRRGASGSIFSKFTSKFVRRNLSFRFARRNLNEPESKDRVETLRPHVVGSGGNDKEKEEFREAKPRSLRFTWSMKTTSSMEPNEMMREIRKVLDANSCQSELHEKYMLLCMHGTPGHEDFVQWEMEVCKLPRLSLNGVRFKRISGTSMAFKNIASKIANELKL
Outline: as §1

[4] = target: T4, CK1epsilon (Homo sapiens, UniProt P49674)
T4 construct: purchased Reaction Biology Corporation
Outline: as §1

[5] = target: T5, p70S6Kb/RPS6KB2 (Homo sapiens, UniProt Q9UBS0)
T5 construct: purchased Reaction Biology Corporation
Outline: as §1

[6] = target: T6, ROCK1 (Homo sapiens, UniProt Q13464)
T6 construct: purchased Reaction Biology Corporation
Outline: as §1

[7] = target: T7, NEK9 (Homo sapiens, UniProt Q8TD19)
T7 construct: purchased Reaction Biology Corporation
Outline: as §1

[8] = target: T8, ALK4/ACVR1B (Homo sapiens, UniProt P36896)
T8 construct: purchased Reaction Biology Corporation
Outline: as §1

[9] = target: T9, GRK3 (Homo sapiens, UniProt P35626)
T9 construct: purchased Reaction Biology Corporation
Outline: as §1

[10] = target: T10, IKKe/IKBKE (Homo sapiens, UniProt Q14164)
T10 construct: purchased Reaction Biology Corporation
Outline: as §1

[11] = target: T11, MKK6 (Homo sapiens, UniProt P52564)
T11 construct: purchased Reaction Biology Corporation
Outline: as §1

[12] = target: T12, DCAMKL2 (Homo sapiens, UniProt Q8N568)
T12 construct: purchased Reaction Biology Corporation
Outline: as §1

[13] = target: T13, WNK1 (Homo sapiens, UniProt Q9H4A3)
T13 construct: purchased Reaction Biology Corporation
T13 sequence (Q9H4A3 whole entry): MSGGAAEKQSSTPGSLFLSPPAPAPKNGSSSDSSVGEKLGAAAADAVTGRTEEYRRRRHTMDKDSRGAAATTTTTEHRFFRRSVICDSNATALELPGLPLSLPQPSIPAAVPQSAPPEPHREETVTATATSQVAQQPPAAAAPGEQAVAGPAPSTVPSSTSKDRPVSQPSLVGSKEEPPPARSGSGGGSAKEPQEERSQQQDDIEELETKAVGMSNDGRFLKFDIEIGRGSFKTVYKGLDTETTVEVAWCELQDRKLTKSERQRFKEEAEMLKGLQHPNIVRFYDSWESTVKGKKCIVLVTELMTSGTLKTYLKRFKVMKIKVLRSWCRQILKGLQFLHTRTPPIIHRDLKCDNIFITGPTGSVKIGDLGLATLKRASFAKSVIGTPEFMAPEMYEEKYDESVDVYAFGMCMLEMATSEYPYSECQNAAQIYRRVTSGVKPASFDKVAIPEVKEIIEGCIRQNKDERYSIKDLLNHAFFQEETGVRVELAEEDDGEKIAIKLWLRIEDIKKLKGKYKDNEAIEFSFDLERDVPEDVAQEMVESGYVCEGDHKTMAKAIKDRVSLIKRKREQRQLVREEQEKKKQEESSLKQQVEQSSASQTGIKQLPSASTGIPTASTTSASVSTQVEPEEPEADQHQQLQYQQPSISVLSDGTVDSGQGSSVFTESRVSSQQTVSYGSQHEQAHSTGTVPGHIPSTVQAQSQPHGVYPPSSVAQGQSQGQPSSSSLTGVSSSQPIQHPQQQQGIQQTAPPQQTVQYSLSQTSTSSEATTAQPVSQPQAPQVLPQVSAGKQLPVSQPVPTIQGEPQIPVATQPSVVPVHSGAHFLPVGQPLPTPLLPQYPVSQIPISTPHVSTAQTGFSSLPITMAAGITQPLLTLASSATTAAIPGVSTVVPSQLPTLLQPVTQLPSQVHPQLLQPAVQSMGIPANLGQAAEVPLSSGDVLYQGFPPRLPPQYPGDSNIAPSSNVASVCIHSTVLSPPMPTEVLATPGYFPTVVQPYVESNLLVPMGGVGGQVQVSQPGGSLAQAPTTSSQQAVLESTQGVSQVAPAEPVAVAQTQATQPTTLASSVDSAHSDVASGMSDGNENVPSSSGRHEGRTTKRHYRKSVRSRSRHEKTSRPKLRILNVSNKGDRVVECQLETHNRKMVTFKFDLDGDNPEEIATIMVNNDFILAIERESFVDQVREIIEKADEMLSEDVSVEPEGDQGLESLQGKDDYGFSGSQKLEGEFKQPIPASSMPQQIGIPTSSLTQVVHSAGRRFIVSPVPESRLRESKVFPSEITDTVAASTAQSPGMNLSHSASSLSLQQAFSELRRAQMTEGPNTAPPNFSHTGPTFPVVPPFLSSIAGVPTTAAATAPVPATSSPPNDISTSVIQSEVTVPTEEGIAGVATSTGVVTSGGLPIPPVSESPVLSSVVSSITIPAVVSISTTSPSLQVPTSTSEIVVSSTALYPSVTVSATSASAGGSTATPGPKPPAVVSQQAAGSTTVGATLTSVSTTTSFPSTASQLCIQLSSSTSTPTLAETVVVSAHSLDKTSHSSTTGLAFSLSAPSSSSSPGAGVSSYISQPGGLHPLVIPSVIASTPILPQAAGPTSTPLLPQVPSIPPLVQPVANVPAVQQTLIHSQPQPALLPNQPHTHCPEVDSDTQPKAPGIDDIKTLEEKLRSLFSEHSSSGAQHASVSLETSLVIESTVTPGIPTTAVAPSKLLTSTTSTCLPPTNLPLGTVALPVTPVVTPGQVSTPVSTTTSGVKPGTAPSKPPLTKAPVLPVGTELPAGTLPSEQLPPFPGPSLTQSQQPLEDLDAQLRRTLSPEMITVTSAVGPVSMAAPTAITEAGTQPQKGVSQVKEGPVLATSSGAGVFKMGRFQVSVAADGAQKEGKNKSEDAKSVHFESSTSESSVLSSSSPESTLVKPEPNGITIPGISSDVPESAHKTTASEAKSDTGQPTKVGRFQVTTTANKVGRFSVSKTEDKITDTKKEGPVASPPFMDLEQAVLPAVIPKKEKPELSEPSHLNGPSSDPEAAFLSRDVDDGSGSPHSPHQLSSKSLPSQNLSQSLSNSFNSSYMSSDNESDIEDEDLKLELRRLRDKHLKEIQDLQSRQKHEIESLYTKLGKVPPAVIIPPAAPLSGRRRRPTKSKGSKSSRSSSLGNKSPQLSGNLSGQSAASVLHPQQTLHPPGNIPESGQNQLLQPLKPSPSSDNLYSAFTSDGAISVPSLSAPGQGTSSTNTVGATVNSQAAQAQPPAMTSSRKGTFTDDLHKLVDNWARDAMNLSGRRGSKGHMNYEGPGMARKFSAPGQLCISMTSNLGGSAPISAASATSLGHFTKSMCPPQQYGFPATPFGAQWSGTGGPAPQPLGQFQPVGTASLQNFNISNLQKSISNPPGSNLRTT
Outline: as §1

[14] = target: T14, CDK2/cyclin A (Homo sapiens, UniProt P24941)
T14 construct: purchased Reaction Biology Corporation
Outline: as §1

[15] = target: T15, PHKg1 (Homo sapiens, UniProt Q16816)
T15 construct: purchased Reaction Biology Corporation
T15 sequence (Q16816 whole entry): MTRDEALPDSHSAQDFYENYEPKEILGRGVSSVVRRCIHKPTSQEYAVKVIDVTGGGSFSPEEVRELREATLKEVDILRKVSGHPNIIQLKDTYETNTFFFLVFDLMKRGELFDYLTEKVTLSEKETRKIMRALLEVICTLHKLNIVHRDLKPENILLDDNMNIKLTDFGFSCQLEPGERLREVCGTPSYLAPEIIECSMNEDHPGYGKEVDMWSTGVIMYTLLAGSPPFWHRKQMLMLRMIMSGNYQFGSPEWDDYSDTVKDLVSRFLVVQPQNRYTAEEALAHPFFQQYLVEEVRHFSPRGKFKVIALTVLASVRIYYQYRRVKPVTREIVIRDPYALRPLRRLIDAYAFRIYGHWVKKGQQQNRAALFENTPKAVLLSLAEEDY
Outline: as §1

[16] = target: T16, ARK5/NUAK1 (Homo sapiens, UniProt O60285)
T16 construct: purchased Reaction Biology Corporation
Outline: as §1

[17] = target: T17, STK38L/NDR2 (Homo sapiens, UniProt Q9Y2H1)
T17 construct: purchased Reaction Biology Corporation
Outline: as §1

[18] = target: T18, MARK3 (Homo sapiens, UniProt P27448)
T18 construct: purchased Reaction Biology Corporation
Outline: as §1

[19] = target: T19, EPHA6 (Homo sapiens, UniProt Q9UF33)
T19 construct: purchased Reaction Biology Corporation
Outline: as §1

[20] = target: T20, FER (Homo sapiens, UniProt P16591)
T20 construct: purchased Reaction Biology Corporation
Outline: as §1

[21] = target: T21, LOK/STK10 (Homo sapiens, UniProt O94804)
T21 construct: purchased Reaction Biology Corporation
Outline: as §1

[22] = target: T22, JAK3 (Homo sapiens, UniProt P52333)
T22 construct: purchased Reaction Biology Corporation
Outline: as §1

[23] = target: T23, SNRK (Homo sapiens, UniProt Q9NRH2)
T23 construct: purchased Reaction Biology Corporation
Outline: as §1

[24] = target: T24, TBK1 (Homo sapiens, UniProt Q9UHD2)
T24 construct: purchased Reaction Biology Corporation
Outline: as §1

[25] = target: T25, TIE2/TEK (Homo sapiens, UniProt Q02763)
T25 construct: purchased Reaction Biology Corporation
Outline: as §1

[26] = target: T26, TEC (Homo sapiens, UniProt P42680)
T26 construct: purchased Reaction Biology Corporation
Outline: as §1

[27] = target: T27, RIPK5 (Homo sapiens, UniProt Q6XUX3)
T27 construct: purchased Reaction Biology Corporation
Outline: as §1

[28] = target: T28, CDK9/cyclin T2 (Homo sapiens, UniProt P50750)
T28 construct: purchased Reaction Biology Corporation
Outline: as §1

[29] = target: T29, JNK1 (Homo sapiens, UniProt P45983)
T29 construct: purchased Reaction Biology Corporation
Outline: as §1

[30] = target: T30, PKCb2 (Homo sapiens, UniProt P05771)
T30 construct: purchased Reaction Biology Corporation
T30 sequence (P05771 1-673 isoform P05771-2): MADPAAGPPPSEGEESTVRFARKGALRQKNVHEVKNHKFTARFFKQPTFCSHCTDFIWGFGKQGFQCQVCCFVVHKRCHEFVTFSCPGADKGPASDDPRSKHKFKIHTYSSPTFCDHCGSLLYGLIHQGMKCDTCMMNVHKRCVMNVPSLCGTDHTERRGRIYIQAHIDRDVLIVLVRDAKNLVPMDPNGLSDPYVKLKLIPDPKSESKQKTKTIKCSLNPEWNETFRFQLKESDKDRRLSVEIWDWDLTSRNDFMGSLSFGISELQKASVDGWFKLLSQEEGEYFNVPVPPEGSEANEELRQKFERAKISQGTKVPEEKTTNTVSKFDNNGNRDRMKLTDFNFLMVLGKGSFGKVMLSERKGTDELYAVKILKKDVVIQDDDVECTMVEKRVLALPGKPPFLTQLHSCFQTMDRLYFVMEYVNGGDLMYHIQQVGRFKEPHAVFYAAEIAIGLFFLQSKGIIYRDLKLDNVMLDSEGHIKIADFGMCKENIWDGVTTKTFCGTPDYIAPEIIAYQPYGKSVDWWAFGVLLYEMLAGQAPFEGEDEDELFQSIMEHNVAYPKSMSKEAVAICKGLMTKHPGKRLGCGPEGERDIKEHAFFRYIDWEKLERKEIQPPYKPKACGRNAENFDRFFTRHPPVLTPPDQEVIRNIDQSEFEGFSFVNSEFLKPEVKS
Outline: as §1

[31] = target: T31, GLK/MAP4K3 (Homo sapiens, UniProt Q8IVH8)
T31 construct: purchased Reaction Biology Corporation
Outline: as §1

[32] = target: T32, RSK1 (Homo sapiens, UniProt Q15418)
T32 construct: purchased Reaction Biology Corporation
Outline: as §1

[33] = target: T33, AKT3 (Homo sapiens, UniProt Q9Y243)
T33 construct: purchased Reaction Biology Corporation
Outline: as §1

CC(=O)Nc1nc2ccc(-c3cnc(C)c(NC(=O)OC4CCCCC4)c3)cc2s1 [PK68, cyclohexyl (5-(2-acetamidobenzo[d]thiazol-6-yl)-2-methylpyridin-3-yl)carbamate]
Activity% ([1]; 1 μM): 112.29% | activity at 1 µM [1]: 115% | Activity% ([2]; 1 μM): 96.14% | activity at 1 µM [2]: 99.2% | Activity% ([3]; 1 μM): 107.76% | activity at 1 µM [3]: 110% | Activity% ([4]; 1 μM): 74.35% | activity at 1 µM [4]: 78.2% | Activity% ([5]; 1 μM): 95.50% | activity at 1 µM [5]: 98.8% | Activity% ([6]; 1 μM): 99.31% | activity at 1 µM [6]: 101% | Activity% ([7]; 1 μM): 90.50% | activity at 1 µM [7]: 90.9% | Activity% ([8]; 1 μM): 95.17% | activity at 1 µM [8]: 95.5% | Activity% ([9]; 1 μM): 102.09% | activity at 1 µM [9]: 103% | Activity% ([10]; 1 μM): 92.74% | activity at 1 µM [10]: 98.2% | Activity% ([11]; 1 μM): 107.08% | activity at 1 µM [11]: 109% | Activity% ([12]; 1 μM): 99.58% | activity at 1 µM [12]: 100% | Activity% ([13]; 1 μM): 111.38% | activity at 1 µM [13]: 112% | Activity% ([14]; 1 μM): 97.94% | activity at 1 µM [14]: 98.5% | Activity% ([15]; 1 μM): 93.46% | activity at 1 µM [15]: 93.6% | Activity% ([16]; 1 μM): 98.37% | activity at 1 µM [16]: 99.4% | Activity% ([17]; 1 μM): 100.42% | activity at 1 µM [17]: 101% | Activity% ([18]; 1 μM): 103.78% | activity at 1 µM [18]: 104% | Activity% ([19]; 1 μM): 97.58% | activity at 1 µM [19]: 98.1% | Activity% ([20]; 1 μM): 100.70% | activity at 1 µM [20]: 102% | Activity% ([21]; 1 μM): 97.50% | activity at 1 µM [21]: 97.9% | Activity% ([22]; 1 μM): 92.17% | activity at 1 µM [22]: 92.9% | Activity% ([23]; 1 μM): 90.23% | activity at 1 µM [23]: 94.9% | Activity% ([24]; 1 μM): 96.55% | activity at 1 µM [24]: 97% | Activity% ([25]; 1 μM): 82.66% | activity at 1 µM [25]: 83.4% | Activity% ([26]; 1 μM): 97.93% | activity at 1 µM [26]: 99% | Activity% ([27]; 1 μM): 102.45% | activity at 1 µM [27]: 103% | Activity% ([28]; 1 μM): 88.23% | activity at 1 µM [28]: 90.7% | Activity% ([29]; 1 μM): 97.06% | activity at 1 µM [29]: 98.7% | Activity% ([30]; 1 μM): 98.56% | activity at 1 µM [30]: 100% | Activity% ([31]; 1 μM): 102.14% | activity at 1 µM [31]: 104% | Activity% ([32]; 1 μM): 98.15% | activity at 1 µM [32]: 100% | Activity% ([33]; 1 μM): 98.71% | activity at 1 µM [33]: 100%
